Test [1] deals with T1, Neuronal acetylcholine receptor; alpha4/beta2 (Rattus norvegicus, UniProt P09483+P12390). Briefly: Displacement of [3H]epibatidine from rat alpha4beta2 nAChR transfected in HEK293 cells after 4 hrs by scintillation count analysis. It is filed as cell-based. Background: Displacement assays read how much labelled ligand stays bound in the presence of the test substance.
In test [2] the target is Neuronal acetylcholine receptor; alpha4/beta4 (Rattus norvegicus, UniProt P09483+P12392). In words: Displacement of [3H]epibatidine from rat alpha4beta4 nAChR transfected in HEK293 cells after 4 hrs by scintillation count analysis. It is filed as cell-based.
Test [3] has as its target Nicotinic acetylcholine receptor alpha-4/beta-2 (Mus musculus, UniProt Q8R493+Q9ERK7). In words: Antagonist activity at mouse alpha4beta2 nAChR transfected in HEK293 cells by FLIPR membrane potential blue (FMP) assay. It is filed as cell-based.
Test [4] concerns the target T2, Neuronal acetylcholine receptor; alpha3/beta4 (Rattus norvegicus, UniProt P04757+P12392). Briefly: Antagonist activity at rat alpha3beta4 nAChR transfected in HEK293 cells by FLIPR membrane potential blue (FMP) assay. In kind it is cell-based.
In test [5] the target is T2, Neuronal acetylcholine receptor; alpha3/beta4. In words: Displacement of [3H]epibatidine from rat alpha3beta4 nAChR transfected in HEK293 cells after 4 hrs by scintillation count analysis. It is filed as cell-based.
Test [6] concerns the target T1, Neuronal acetylcholine receptor; alpha4/beta2. In words: Inhibition of rat membrane alpha4beta2 nAChR by [3H]cytisine binding assay.

Chain of Neuronal acetylcholine receptor; alpha4/beta4 (P09483 whole entry): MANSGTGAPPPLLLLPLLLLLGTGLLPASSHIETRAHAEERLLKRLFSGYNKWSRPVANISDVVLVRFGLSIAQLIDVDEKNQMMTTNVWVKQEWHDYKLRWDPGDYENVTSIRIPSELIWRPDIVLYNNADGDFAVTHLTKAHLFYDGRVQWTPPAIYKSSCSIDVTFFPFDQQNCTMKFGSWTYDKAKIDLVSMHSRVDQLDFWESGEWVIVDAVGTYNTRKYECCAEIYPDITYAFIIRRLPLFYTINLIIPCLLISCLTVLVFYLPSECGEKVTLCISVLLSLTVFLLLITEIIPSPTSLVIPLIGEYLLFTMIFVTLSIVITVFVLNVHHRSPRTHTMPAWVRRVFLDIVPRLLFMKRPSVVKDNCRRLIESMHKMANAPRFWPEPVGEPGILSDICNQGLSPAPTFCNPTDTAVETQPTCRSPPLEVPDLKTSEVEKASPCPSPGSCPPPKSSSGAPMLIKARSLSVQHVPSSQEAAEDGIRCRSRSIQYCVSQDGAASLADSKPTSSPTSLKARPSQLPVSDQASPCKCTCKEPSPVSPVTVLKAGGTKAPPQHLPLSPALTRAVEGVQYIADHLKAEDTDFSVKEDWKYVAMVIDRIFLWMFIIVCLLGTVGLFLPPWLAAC
Chain of Neuronal acetylcholine receptor; alpha4/beta4 (P12392 whole entry): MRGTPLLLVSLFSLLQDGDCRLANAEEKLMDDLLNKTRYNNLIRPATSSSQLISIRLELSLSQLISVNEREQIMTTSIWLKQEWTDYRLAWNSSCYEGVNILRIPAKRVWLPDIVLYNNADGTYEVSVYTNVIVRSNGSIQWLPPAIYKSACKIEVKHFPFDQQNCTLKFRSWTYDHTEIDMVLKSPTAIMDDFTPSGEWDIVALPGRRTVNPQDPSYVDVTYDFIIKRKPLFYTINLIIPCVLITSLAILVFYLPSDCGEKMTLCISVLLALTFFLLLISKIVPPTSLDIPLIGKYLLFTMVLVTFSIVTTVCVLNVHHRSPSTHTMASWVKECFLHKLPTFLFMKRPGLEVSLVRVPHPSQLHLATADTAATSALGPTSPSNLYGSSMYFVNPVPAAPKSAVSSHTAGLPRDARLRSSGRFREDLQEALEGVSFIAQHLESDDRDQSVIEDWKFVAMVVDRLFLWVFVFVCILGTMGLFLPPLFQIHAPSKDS
T1 sequence (P09483 whole entry): as the sequence (P09483 whole entry) above
T1 sequence (P12390 whole entry): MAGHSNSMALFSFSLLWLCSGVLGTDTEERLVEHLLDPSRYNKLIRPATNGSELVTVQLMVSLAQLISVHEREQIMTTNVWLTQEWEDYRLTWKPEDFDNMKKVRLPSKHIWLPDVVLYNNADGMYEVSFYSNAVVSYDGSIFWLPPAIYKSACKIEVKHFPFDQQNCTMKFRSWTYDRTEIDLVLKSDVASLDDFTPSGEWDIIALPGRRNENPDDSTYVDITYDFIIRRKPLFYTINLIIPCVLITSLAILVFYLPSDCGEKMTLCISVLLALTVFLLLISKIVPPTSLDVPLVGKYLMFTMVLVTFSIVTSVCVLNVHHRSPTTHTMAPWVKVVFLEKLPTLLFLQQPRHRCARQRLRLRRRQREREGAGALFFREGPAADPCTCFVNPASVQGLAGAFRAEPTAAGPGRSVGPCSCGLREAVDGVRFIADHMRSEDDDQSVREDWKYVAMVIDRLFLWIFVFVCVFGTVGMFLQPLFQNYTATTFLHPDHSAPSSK
T2 sequence (P04757 whole entry): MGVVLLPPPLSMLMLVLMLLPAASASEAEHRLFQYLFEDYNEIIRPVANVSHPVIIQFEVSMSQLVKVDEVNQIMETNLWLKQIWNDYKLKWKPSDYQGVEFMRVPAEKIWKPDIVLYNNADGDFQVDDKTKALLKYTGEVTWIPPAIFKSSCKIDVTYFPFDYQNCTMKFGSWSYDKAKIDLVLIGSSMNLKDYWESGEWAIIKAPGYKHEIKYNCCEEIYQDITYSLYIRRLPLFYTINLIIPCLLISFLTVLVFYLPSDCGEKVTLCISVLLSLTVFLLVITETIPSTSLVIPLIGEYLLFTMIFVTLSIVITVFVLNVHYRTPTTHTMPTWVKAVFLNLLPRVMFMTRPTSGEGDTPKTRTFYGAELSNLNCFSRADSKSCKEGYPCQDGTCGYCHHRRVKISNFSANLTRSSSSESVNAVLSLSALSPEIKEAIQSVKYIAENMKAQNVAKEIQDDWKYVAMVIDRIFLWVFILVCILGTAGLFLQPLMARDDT
T2 sequence (P12392 whole entry): as the sequence (P12392 whole entry) above
Chain of Nicotinic acetylcholine receptor alpha-4/beta-2 (Q9ERK7 whole entry): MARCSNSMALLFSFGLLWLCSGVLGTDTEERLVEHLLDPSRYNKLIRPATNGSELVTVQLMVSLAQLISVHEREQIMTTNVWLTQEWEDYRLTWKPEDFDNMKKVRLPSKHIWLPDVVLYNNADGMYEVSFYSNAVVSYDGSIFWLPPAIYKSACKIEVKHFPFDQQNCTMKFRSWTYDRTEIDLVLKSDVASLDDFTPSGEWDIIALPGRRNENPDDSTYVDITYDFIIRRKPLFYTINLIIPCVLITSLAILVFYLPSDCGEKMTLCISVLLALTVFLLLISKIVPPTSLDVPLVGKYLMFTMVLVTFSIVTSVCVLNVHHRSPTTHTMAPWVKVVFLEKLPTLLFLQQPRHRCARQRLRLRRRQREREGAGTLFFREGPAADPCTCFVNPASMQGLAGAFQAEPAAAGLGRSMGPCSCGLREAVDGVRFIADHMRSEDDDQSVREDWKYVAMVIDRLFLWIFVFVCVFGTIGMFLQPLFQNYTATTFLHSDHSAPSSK
Chain of Nicotinic acetylcholine receptor alpha-4/beta-2 (Q8R493 whole entry): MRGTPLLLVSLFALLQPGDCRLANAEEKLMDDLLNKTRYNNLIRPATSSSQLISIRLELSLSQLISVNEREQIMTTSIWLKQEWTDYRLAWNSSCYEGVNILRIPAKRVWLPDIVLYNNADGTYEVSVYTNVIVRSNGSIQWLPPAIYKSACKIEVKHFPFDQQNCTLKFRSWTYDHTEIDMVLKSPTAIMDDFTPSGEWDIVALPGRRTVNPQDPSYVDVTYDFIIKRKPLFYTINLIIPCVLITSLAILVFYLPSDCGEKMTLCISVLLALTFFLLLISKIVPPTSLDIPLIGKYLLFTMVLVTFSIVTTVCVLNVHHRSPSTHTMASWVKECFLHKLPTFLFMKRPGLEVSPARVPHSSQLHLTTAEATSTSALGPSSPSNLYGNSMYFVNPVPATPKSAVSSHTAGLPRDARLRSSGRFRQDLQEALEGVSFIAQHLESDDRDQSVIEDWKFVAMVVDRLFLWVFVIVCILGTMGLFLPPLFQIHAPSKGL

As usually defined, the Ki is the equilibrium dissociation constant of an inhibitor or competing ligand from its target. Broadly, the IC50 is the concentration at which inhibition is half-maximal. Read a low IC50 as inhibition by little substance. For the molecule `O[C@H]1CC=C2CCN[C@H]2C1` (racemic), the inhibitory constant (Ki) in test [1], in test [2] and in test [5] was above 300 µM throughout. Also, the half-maximal inhibitory concentration (IC50) in test [3] and in test [4] was above 300 µM each time.

`CO[C@H]1C=CC2=CCN3CCC4=C(CC(=O)OC4)[C@]23C1` returned a Ki in test [6] of 1.1 µM.

Consider `COCCO[C@H]1CC=C2CCN(C)[C@H]2C1` (racemic), for which the Ki in test [1], in test [2] and in test [5] was above 300 µM in each case. Moreover, the IC50 in test [3] and in test [4] was above 300 µM each time.

For `CO[C@H]1CC=C2CCN(C)[C@H]2C1` (racemic), the Ki in test [1] amounted to 3.4 µM; in test [2], 100 µM; in test [5], 100 µM. Also, the half-inhibitory concentration (IC50) in test [3] was 30 µM; in test [4], above 300 µM.

`CO[C@H]1CC[C@H]2CCN3CCC4=C(CC(=O)OC4)[C@]23C1` showed a Ki in test [6] of 7.4 µM.

For `CCO[C@H]1CC[C@H]2CCN(C)[C@H]2C1` (racemic), the Ki is 300 µM in test [1], above 300 µM in test [2] and 300 µM in test [5]. Besides, the 50% inhibitory concentration (IC50) in test [3] and in test [4] was above 300 µM in each case.

As to `CN1CC[C@@H]2CC[C@H](OCc3ccccc3)C[C@@H]21` (racemic), the Ki in test [1] was determined as 100 µM; in test [2], 300 µM; in test [5], 100 µM. Also, the IC50 in test [3] and in test [4] was above 300 µM each time.

On to `CN1CCC2=CC[C@H](O)C[C@@H]21` (racemic), for which the Ki is 300 µM in test [1], above 300 µM in test [2] and above 300 µM in test [5]. The concentration for half-maximal inhibition (IC50) in test [3] was above 100 µM; in test [4], above 300 µM.

Take `COCCO[C@H]1CC[C@H]2CCN(C)[C@H]2C1` (racemic): the inhibitory constant (Ki) in test [1] is 300 µM; in test [2] it was above 300 µM; in test [5], 300 µM. In addition, the IC50 in test [3] and in test [4] was above 300 µM throughout.

As for `CN1CCC2=CC[C@H](OCc3ccccc3)C[C@@H]21` (racemic), the Ki in test [1], in test [2] and in test [5] was 300 µM throughout. In addition, the 50% inhibitory concentration (IC50) in test [3] and in test [4] was above 300 µM each time.

On to `CCO[C@H]1CC=C2CCN(C)[C@H]2C1` (racemic), for which the inhibition constant Ki was 300 µM in test [1], above 300 µM in test [2] and above 300 µM in test [5]. Also, the concentration for half-maximal inhibition (IC50) in test [3] and in test [4] was above 300 µM in each case.

As for `CO[C@H]1CC=C2CCN[C@H]2C1` (racemic), the values for the inhibition constant Ki in test [1], in test [2] and in test [5] were 300 µM, above 300 µM and above 300 µM, respectively. Also, the IC50 was 100 µM in test [3] and above 300 µM in test [4].

Regarding `CO[C@H]1C=CC2=CCN(C)[C@H]2C1` (racemic), the Ki in test [1] is 30 µM; in test [2], above 300 µM; in test [5], above 300 µM. The IC50 is 100 µM in test [3] and above 300 µM in test [4].

In the case of `CN1CC[C@@H]2CC[C@H](O)C[C@@H]21` (racemic), the Ki in test [1], in test [2] and in test [5] was above 300 µM in each case. Besides, the 50% inhibitory concentration (IC50) in test [3] and in test [4] was above 300 µM each time.

Consider `CO[C@H]1CC=C2CCN3CCC4=C(CC(=O)OC4)[C@]23C1`, for which the inhibition constant (Ki) in test [1] is 0.82 µM; in test [2], 100 µM; in test [6], 0.14 µM; in test [5] it was 100 µM. For the same molecule, half-maximal inhibition in test [3] (IC50) required 1.2 µM.

For the molecule `O[C@H]1CC[C@H]2CCN[C@H]2C1` (racemic), the inhibitory constant (Ki) in test [1], in test [2] and in test [5] was above 300 µM each time. Further, the results for the IC50 in test [3] and in test [4] were above 100 µM and above 300 µM, respectively.

`CO[C@H]1CC[C@H]2CCN(C)[C@H]2C1` (racemic): the Ki in test [1] is 300 µM; in test [2], above 300 µM; in test [5], above 300 µM. In addition, the IC50 in test [3] and in test [4] was above 300 µM each time.

(Values after ChEMBL document CHEMBL3351888, “Synthesis and Pharmacological Evaluation of DHβE Analogues as Neuronal Nicotinic Acetylcholine Receptor Antagonists” (ACS Med Chem Lett, 2014).)
